In patent publication US8697694B2, “Substituted pyridine and pyrimidine derivatives and their use in treating viral infections” (priority 2008, dated 2014) one finds EC90 data, which are given here for 43 molecules.

In the first test the test system is HCV replicon cells. Kind of test: Cell-based HCV replicon assay (replicon RNA level by real time PCR, Taqman). The note with it: Hepatitis C virus, 72 h, HCV replicon cells, replicon RNA level by real time PCR, harvested day 3; read-out: EC90 (μM) range. Summed up: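 Readout: ΔCT between NS5B replicon RNA and GAPDH by real-time RT-PCR in lysates harvested on day 3, fitted sigmoidally; EC50 at ΔCT=1, EC90 at ΔCT=3.2. Compounds tested at ten 2-fold dilutions from 25 μM to 1 μM start, 10% FBS, 0.5% DMSO.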
Turning to `Cc1nc(N[C@@H](c2ccsc2)C(F)(F)F)nc(N[C@@H]2C[C@H](CO)[C@@H](O)[C@H]2O)c1-c1nc2ccccc2s1` [Example 1703], the 90% effect concentration (EC90) was 0.5 to 5 µM.

With `Cc1nc(NCC2CC2)nc(N[C@@H]2CC[C@@H](O)[C@@]2(C)O)c1-c1nc2cnccc2s1` [Example 1704], the EC90 is below 0.5 µM.

Consider `CCOc1ccc(CCNc2nc(C)c(-c3nc4cnccc4s3)c(N[C@@H]3C[C@H](CO)[C@@H](O)[C@H]3O)n2)cc1` [Example 1705], for which the EC90 is below 0.5 µM.

For `Cc1ccsc1CCNc1nc(C)c(-c2nc3ccccc3s2)c(N[C@@H]2C[C@H](CO)[C@@H](O)[C@H]2O)n1` [Example 1706], the EC90 lay within 0.5 to 5 µM.

Take `Cc1ccsc1CCNc1nc(C)c(-c2nc3cnccc3s2)c(N[C@@H]2C[C@H](CO)[C@@H](O)[C@H]2O)n1` [Example 1707]: the EC90 was below 0.5 µM.

Consider `Cc1ccc([C@@H](C)Nc2nc(C)c(-c3nc4cnccc4s3)c(N[C@@H]3C[C@H](CO)[C@@H](O)[C@@]3(C)O)n2)cc1` [Example 1708], for which the 90% effect concentration (EC90) was below 0.5 µM.

Take `Cc1nc(NCC(F)(F)F)nc(N[C@@H]2C[C@H](CO)[C@@H](O)[C@@]2(C)O)c1-c1nc2cnccc2s1` [Example 1709]: the EC90 is below 0.5 µM.

As to `Cc1nc(N[C@@H](c2cccs2)C(F)(F)F)nc(N[C@@H]2C[C@H](CO)[C@@H](O)[C@H]2O)c1-c1nc2ccccc2s1` [Example 1801], the EC90 is below 0.5 µM.

As for `Cc1nc(NC(C)c2cccnc2)nc(N[C@@H]2C[C@H](CO)[C@@H](O)[C@H]2O)c1-c1nc2ccccc2s1` (stereo partly shown) [Example 1802], the 90% effect concentration (EC90) fell in the range of 0.5 to 5 µM.

Turning to `Cc1nc(N[C@H](c2cccs2)C(F)(F)F)nc(N[C@@H]2C[C@H](CO)[C@@H](O)[C@H]2O)c1-c1nc2ccccc2s1` [Example 1803], the EC90 was above 5 µM.

Consider `Cc1nc(NCc2c(F)cccc2F)nc(N[C@@H]2C[C@H](CO)[C@@H](O)[C@H]2O)c1-c1nc2cnccc2s1` [Example 1804], for which the EC90 is below 0.5 µM.

Turning to `Cc1nc(NCCc2cccs2)nc(N[C@@H]2C[C@H](CO)[C@@H](O)[C@H]2O)c1-c1nc2ccccc2s1` [Example 1805], the EC90 was below 0.5 µM.

In the case of `Cc1nc(NCCc2cccs2)nc(N[C@@H]2C[C@H](CO)[C@@H](O)[C@H]2O)c1-c1nc2cnccc2s1` [Example 1806], the EC90 was above 5 µM.

In the case of `Cc1nc(NCc2c(F)cccc2F)nc(N[C@@H]2CC[C@@H](O)[C@@]2(C)O)c1-c1nc2cnccc2s1` [Example 1808], the EC90 was below 0.5 µM.

As for `Cc1nc(NCC(F)(F)F)nc(N[C@@H]2CC[C@@H](O)[C@@]2(C)O)c1-c1nc2cnccc2s1` [Example 1809], the 90% effect concentration (EC90) lay within 0.5 to 5 µM.

Turning to `Cc1ccc([C@H](C)Nc2nc(C)c(-c3nc4cnccc4s3)c(N[C@@H]3CC[C@@H](O)[C@@]3(C)O)n2)cc1` [Example 1810], the concentration for an effect of 90% (EC90) was below 0.5 µM.

In the case of `Cc1nc(N[C@H](C)C2CC2)nc(N[C@@H]2CC[C@@H](O)[C@@]2(C)O)c1-c1nc2cnccc2s1` [Example 1811], the EC90 is below 0.5 µM.

With `Cc1ccc(CCNc2nc(C)c(-c3nc4ccccc4s3)c(N[C@@H]3C[C@H](CO)[C@@H](O)[C@H]3O)n2)s1` [Example 1812], the EC90 was in the range of 0.5 to 5 µM.

Consider `Cc1ccc(CCNc2nc(C)c(-c3nc4cnccc4s3)c(N[C@@H]3C[C@H](CO)[C@@H](O)[C@H]3O)n2)s1` [Example 1813], for which the 90% effect concentration (EC90) is below 0.5 µM.

With `Cc1nc(NCc2c(F)cccc2F)nc(N[C@@H]2CC[C@@H](O)[C@@]2(C)O)c1-c1nc2c(C)nccc2s1` [Example 1814], the concentration for an effect of 90% (EC90) was below 0.5 µM.

As to `Cc1nc(NCC2CC2)nc(N[C@@H]2CC[C@@H](O)[C@@]2(C)O)c1-c1nc2c(C)nccc2s1` [Example 1815], the EC90 was below 0.5 µM.

As for `Cc1nc(NCC(F)(F)F)nc(N[C@@H]2CC[C@@H](O)[C@@]2(C)O)c1-c1nc2c(C)nccc2s1` [Example 1816], the 90% effect concentration (EC90) was below 0.5 µM.

Consider `Cc1nc(N[C@H](C)C2CC2)nc(N[C@@H]2CC[C@@H](O)[C@@]2(C)O)c1-c1nc2c(C)nccc2s1` [Example 1817], for which the EC90 was below 0.5 µM.

In the case of `COc1ccc(CCNc2nc(C)c(-c3nc4cnccc4s3)c(N[C@@H]3CC[C@@H](O)[C@@]3(C)O)n2)cc1Cl` [Example 1818], the concentration for an effect of 90% (EC90) was in the range of 0.5 to 5 µM.

As to `CCOCCNc1nc(C)c(-c2nc3cnccc3s2)c(N[C@@H]2CC[C@@H](O)[C@@]2(C)O)n1` [Example 1819], the EC90 is below 0.5 µM.

Consider `Cc1nc(NC2CC2)nc(N[C@@H]2CC[C@@H](O)[C@@]2(C)O)c1-c1nc2cnccc2s1` [Example 1820], for which the concentration for an effect of 90% (EC90) lay in the range of 0.5 to 5 µM.

In the case of `Cc1nc(NCc2ccc(F)cc2F)nc(N[C@@H]2CC[C@@H](O)[C@@]2(C)O)c1-c1nc2cnccc2s1` [Example 1821], the EC90 is below 0.5 µM.

For the molecule `Cc1nc(C(N)=O)nc(N[C@@H]2C[C@H](CO)[C@H]3OC(C)(C)O[C@H]32)c1-c1nc2ccccc2s1` [Example 1902], the 90% effect concentration (EC90) is above 5 µM.

Turning to `Cc1nc(C(N)=O)nc(N[C@@H]2C[C@H](CO)[C@@H](O)[C@H]2O)c1-c1nc2ccccc2s1` [Example 1903], the 90% effect concentration (EC90) is above 5 µM.

Consider `Cc1nc(C#N)nc(N[C@@H]2C[C@H](CO)[C@@H](O)[C@H]2O)c1-c1nc2ccccc2s1` [Example 1904], for which the EC90 was above 5 µM.

With `Cc1nc(N)nc(N[C@@H]2C[C@H](COS(C)(=O)=O)[C@@H](O)[C@H]2O)c1-c1nc2ccccc2s1` [Example 1905], the EC90 was 0.5 to 5 µM.

Turning to `C=CCNc1nc(C)c(C2=NC3=C=CC=CC3S2)c(N[C@@H]2C[C@H](CO)[C@@H](O)[C@H]2O)n1` (stereo partly shown) [Example 1906], the 90% effect concentration (EC90) was in the range of 0.5 to 5 µM.

As to `COc1nc(C)c(-c2nc3ccccc3s2)c(N[C@@H]2C[C@H](CO)[C@@H](O)[C@H]2O)n1` [Example 1907], the 90% effect concentration (EC90) lay within 0.5 to 5 µM.

Regarding `Cc1nc(NCc2cc3cnn(C(=O)OC(C)(C)C)c3cc2F)nc(N[C@@H]2C[C@H](CO)[C@H]3OC(C)(C)O[C@H]32)c1-c1nc2ccccc2s1` [Example 1908], the EC90 lay in the range of 0.5 to 5 µM.

`Cc1nc(NCc2cc3cn[nH]c3cc2F)nc(N[C@@H]2C[C@H](CO)[C@@H](O)[C@H]2O)c1-c1nc2ccccc2s1` [Example 1909]: the 90% effect concentration (EC90) was below 0.5 µM.

For `Cc1nc(NCc2c(F)cccc2F)nc(N[C@@H]2C[C@H](CO)[C@@H](O)[C@H]2O)c1-c1nc2ccccc2s1` [Example 1910], the concentration for an effect of 90% (EC90) is below 0.5 µM.

Turning to `Cc1nc(NCc2cc3cn[nH]c3cc2F)nc(N[C@@H]2C[C@H](CO)[C@@H](O)[C@H]2O)c1-c1nc2cnccc2s1` [Example 1911], the concentration for an effect of 90% (EC90) is below 0.5 µM.

With `Cc1nc(NCc2ccc3[nH]cnc3c2)nc(N[C@@H]2C[C@H](CO)[C@@H](O)[C@H]2O)c1-c1nc2ccccc2s1` [Example 1912], the EC90 was below 0.5 µM.

Turning to `COc1ccc(CCNc2nc(C)c(-c3nc4cnccc4s3)c(N[C@@H]3C[C@H](CO)[C@@H](O)[C@H]3O)n2)cc1Cl` [Example 1913], the EC90 fell in the range of 0.5 to 5 µM.

As for `Cc1nc(NCCc2ccc(Cl)c(Cl)c2)nc(N[C@@H]2C[C@H](CO)[C@@H](O)[C@H]2O)c1-c1nc2cnccc2s1` [Example 1914], the EC90 was below 0.5 µM.

Take `CC(=O)OC[C@H]1C[C@@H](Nc2nc(N)nc(C)c2-c2nc3ccccc3s2)[C@H](O)[C@@H]1O` [Example 1915]: the EC90 was above 5 µM.

As to `Cc1nc(CN)nc(N[C@@H]2C[C@H](CO)[C@@H](O)[C@H]2O)c1-c1nc2ccccc2s1` [Example 1916], the concentration for an effect of 90% (EC90) was above 5 µM.

Staying with this test, now noted: Hepatitis C virus, 72 h, read-out: EC90 (μM) range.
Consider `Cc1nc(C#N)nc(N[C@@H]2C[C@H](CO)[C@H]3OC(C)(C)O[C@H]32)c1-c1nc2ccccc2s1` [Example 1901], for which the EC90 was above 5 µM.
